Laboratory results from ChEMBL document CHEMBL5705893, “Targeting the mitotic checkpoint for cancer therapy with NMS-P715, an inhibitor of MPS1 kinase” (Cancer Res, 2010).
The source made the active and inactive calls. The calls are words filed in the database; no cut-off is given here.

Columns and labels:
[1] = system: HeLa; assay: Induction of mitotic arrest in human nocodazole-arrested HeLa cells assessed as delocalization of BUB3 at 1 micromol/L in presence of MG132; format: functional, cell-based; details: dose 1.0 µmol/L
[2] = system: HL-60; assay: Antiproliferative activity against human HL-60 cells assessed as inhibition of cell growth incubated for 72 hrs by celltiter-glo assay; format: functional, cell-based; details: HL-60, 72 h
[3] = Antiproliferative activity against human PL21 cells assessed as inhibition of cell growth incubated for 72 hrs by celltiter-glo assay; format: functional, cell-based; details: PL-21, 72 h
[4] = target: Mitotic checkpoint serine/threonine-protein kinase BUB1 (Homo sapiens, UniProt O43683); assay: Inhibition of recombinant BUB1 (unknown origin)
Sequence of Mitotic checkpoint serine/threonine-protein kinase BUB1 (O43683 whole entry): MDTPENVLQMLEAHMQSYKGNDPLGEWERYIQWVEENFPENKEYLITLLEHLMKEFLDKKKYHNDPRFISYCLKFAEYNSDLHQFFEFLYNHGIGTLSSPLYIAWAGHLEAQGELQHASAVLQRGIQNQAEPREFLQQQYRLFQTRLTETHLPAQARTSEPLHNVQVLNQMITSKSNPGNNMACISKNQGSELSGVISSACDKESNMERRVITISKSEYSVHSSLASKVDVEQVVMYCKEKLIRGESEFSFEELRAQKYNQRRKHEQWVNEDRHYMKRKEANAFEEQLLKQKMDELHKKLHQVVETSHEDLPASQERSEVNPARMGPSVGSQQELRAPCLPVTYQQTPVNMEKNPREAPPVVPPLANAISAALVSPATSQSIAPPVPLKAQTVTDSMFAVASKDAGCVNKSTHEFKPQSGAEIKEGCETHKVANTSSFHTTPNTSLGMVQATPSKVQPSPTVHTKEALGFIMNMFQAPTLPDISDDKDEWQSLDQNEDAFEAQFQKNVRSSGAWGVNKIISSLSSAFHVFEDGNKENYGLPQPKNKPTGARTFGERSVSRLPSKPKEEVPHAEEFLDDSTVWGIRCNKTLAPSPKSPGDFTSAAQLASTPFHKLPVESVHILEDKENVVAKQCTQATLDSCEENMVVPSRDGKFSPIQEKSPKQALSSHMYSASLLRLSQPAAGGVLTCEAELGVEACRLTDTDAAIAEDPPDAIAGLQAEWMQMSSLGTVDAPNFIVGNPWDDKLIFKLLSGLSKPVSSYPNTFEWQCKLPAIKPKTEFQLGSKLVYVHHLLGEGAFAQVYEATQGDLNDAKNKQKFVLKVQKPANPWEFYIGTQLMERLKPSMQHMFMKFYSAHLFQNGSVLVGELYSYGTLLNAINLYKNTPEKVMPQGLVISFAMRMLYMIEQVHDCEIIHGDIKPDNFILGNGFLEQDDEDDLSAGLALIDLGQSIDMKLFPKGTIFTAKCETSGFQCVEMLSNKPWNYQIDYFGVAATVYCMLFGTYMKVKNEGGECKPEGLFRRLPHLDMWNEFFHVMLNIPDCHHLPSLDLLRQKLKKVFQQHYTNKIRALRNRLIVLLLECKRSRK

[5] = system: LS180; assay: Antiproliferative activity against human LS180 cells assessed as inhibition of cell growth incubated for 72 hrs by celltiter-glo assay; format: functional, cell-based; details: LS180, 72 h
[6] = system: HT1197; assay: Antiproliferative activity against human HT1197 cells assessed as inhibition of cell growth incubated for 72 hrs by celltiter-glo assay; format: functional, cell-based; details: HT1197, 72 h
[7] = system: NCI-H322M; assay: Antiproliferative activity against human NCI-H322M cells assessed as inhibition of cell growth incubated for 72 hrs by celltiter-glo assay; format: functional, cell-based
[8] = Cmax in Athymic nu-nu mouse at 100 mg/kg, po measured upto 24 hrs by LC-MS/MS analysis; format: ADME, organism-based; details: in vivo
[9] = target: Vascular endothelial growth factor receptor 3 (Homo sapiens, UniProt P35916); assay: Inhibition of recombinant VEGFR3 (unknown origin)
Sequence of Vascular endothelial growth factor receptor 3 (P35916 whole entry): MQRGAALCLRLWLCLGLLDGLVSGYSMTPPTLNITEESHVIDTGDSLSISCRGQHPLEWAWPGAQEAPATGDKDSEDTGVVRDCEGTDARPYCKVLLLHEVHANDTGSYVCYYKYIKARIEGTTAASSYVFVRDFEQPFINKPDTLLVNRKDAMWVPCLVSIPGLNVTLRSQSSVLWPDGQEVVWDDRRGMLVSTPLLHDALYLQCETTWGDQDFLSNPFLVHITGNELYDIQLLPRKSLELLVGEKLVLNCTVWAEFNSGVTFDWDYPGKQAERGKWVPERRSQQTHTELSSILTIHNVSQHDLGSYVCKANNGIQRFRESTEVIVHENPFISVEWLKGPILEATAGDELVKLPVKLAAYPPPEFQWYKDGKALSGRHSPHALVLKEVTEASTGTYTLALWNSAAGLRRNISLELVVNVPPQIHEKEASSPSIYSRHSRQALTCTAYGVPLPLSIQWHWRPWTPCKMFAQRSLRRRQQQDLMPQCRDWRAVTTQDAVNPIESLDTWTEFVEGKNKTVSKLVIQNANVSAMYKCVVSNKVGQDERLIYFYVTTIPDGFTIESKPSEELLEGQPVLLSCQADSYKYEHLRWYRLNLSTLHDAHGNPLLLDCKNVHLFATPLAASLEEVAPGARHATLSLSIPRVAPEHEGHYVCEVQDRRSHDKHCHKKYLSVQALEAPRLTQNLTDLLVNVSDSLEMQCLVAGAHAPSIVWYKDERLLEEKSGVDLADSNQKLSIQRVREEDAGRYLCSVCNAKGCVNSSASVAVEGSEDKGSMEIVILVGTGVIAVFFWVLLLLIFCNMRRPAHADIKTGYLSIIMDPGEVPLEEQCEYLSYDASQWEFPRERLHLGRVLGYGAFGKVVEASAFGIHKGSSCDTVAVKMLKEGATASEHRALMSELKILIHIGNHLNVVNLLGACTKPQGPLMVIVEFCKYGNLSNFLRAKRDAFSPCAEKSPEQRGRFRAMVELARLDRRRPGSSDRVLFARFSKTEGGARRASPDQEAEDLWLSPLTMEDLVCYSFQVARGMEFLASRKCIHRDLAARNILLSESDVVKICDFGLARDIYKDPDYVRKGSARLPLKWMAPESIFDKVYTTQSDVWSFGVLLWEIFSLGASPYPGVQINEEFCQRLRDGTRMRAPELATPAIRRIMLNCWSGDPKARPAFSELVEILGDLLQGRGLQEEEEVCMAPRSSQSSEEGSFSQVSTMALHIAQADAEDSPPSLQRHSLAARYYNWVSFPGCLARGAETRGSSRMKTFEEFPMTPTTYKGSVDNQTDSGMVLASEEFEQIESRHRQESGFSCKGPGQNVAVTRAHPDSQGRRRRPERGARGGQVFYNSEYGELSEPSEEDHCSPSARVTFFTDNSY

[10] = system: M14; assay: Antiproliferative activity against human M14 cells assessed as inhibition of cell growth incubated for 72 hrs by celltiter-glo assay; format: functional, cell-based; details: M14, 72 h
[11] = system: A2780; assay: Cell cycle arrest in human A2780 cells assessed as accumulation of cells at G1 phase at 0.2 to 1 micromol/L incubated for 24 hrs by FACS/PI staining based flow cytometric analysis; format: functional; details: dose 0.2-1 µmol/L
[12] = target: Serine/threonine-protein kinase NIM1 (Homo sapiens, UniProt Q8IY84); assay: Inhibition of recombinant NIM1 (unknown origin)
Sequence of Serine/threonine-protein kinase NIM1 (Q8IY84 whole entry): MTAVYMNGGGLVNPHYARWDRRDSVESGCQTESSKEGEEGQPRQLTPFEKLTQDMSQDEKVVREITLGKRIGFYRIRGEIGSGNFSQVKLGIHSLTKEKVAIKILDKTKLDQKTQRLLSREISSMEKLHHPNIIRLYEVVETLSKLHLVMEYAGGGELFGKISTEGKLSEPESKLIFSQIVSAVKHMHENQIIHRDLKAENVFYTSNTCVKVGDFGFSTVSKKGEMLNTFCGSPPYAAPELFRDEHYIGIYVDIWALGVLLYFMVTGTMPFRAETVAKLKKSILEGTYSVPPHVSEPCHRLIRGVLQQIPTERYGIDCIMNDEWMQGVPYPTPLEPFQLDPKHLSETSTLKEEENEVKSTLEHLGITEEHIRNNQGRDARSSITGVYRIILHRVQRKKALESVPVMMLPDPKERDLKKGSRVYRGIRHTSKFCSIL

[13] = target: Serine/threonine-protein kinase PLK1 (Homo sapiens, UniProt P53350); assay: Inhibition of recombinant PLK1 (unknown origin)
Sequence of Serine/threonine-protein kinase PLK1 (P53350 whole entry): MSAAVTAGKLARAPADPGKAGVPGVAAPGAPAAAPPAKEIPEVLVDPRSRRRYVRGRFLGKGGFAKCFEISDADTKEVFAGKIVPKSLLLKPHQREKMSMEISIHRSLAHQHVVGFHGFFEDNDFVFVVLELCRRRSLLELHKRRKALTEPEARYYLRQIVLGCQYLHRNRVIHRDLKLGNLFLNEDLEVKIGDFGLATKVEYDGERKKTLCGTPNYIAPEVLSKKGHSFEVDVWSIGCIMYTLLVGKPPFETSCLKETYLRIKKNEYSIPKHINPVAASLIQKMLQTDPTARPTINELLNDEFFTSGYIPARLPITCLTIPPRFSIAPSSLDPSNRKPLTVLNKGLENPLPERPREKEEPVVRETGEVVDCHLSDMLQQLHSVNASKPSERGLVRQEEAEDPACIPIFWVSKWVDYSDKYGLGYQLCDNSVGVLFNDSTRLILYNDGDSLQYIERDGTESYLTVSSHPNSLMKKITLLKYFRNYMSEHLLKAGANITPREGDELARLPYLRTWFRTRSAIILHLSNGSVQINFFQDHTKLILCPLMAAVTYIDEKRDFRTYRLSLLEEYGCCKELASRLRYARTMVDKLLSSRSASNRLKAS

[14] = system: HT-29; assay: Antiproliferative activity against human HT-29 cells assessed as inhibition of cell growth incubated for 72 hrs by celltiter-glo assay; format: functional, cell-based; details: HT-29, 72 h
[15] = system: NCI-H460; assay: Antiproliferative activity against human NCI-H460 cells assessed as inhibition of cell growth incubated for 72 hrs by celltiter-glo assay; format: functional, cell-based; details: NCI-H460, 72 h

CCc1cccc(CC)c1NC(=O)c1nn(C)c2c1CCc1cnc(Nc3ccc(C(=O)NC4CCN(C)CC4)cc3OC(F)(F)F)nc1-2
Activity [1]: Active
IC50 [2]: 1.58 µM
IC50 [3]: 2.96 µM
IC50 [4]: > 10 µM
IC50 [5]: 2.17 µM
IC50 [6]: 8.3 µM
IC50 [7]: 1.55 µM
Cmax [8]: 1790 nM
IC50 [9]: > 10 µM
IC50 [10]: 0.698 µM
Activity [11]: Active
IC50 [12]: > 10 µM
IC50 [13]: > 10 µM
IC50 [14]: 3.92 µM
IC50 [15]: 2.19 µM
